One test has as its system kisspeptin receptor. Particulars: ref unpublished data; cited from earlier work. On the procedure:
The following peptides were tested for antagonistic properties on the kisspeptin receptor: p234 ((D-Ala)-Asn-Trp-Asn-Gly-Phe-Gly-(D-Trp)-Arg-Phe-NH2), p271 (Arg-Arg-Met-Lys-Trp-Lys-Lys-Tyr-(D-Ala)-Asn-Trp-Asn-Gly-Phe-Gly-(D-Trp)-Arg-Phe-NH2), p354 ((D-Ala)-Tyr-Asn-Phe-Asn-Gly-Phe-Gly-(D-Trp)-Arg-Phe-NH2), and p356 ((D-Ala)-Tyr-Asn-Trp-Asn-Gly-Phe-Gly-(D-Trp)-Lys-Phe-NH2). Peptide 354 and p356 are next generation analogs refining p234.

Test [1] addresses T1, human GPR54 (Homo sapiens, UniProt Q969F8). The test is described as follows: Flow cytometric calcium flux assay, response to peptide alone (agonist / intrinsic activity). It is filed as cell-based. More on the design: host or cells: rat hematopoietic CHEM1 cells expressing endogenous Galpha15. As for the experimental part: In vitro analyses of the effects of kisspeptin and kisspeptin antagonists, were performed using HT[…] cells (rat hematopoietic CHEM1 cells expressing endogenous Gα15 and, stably expressing the human GPR54 receptor (Millipore BV, the Netherlands), CHEM1-GPR54. Cells were counted and suspended in HBSS+++ at a concentration of 5*10^6 cells/ml. To load the cells with the fluorescent dye ester they were incubated in HBSS+++ adjusted to a concentration of 2 μM Fluo-3 AM (Molecular Probes, Life Technologies, the Netherlands) for 1h at 37°C under agitation in the dark. After incubation, the cells were washed by adding HBSS+++ to a volume of 10 ml followed by centrifugation (5 min, 150 x g) to remove excess of Fluo-3AM. […] Thereafter the tube was removed briefly and 25 μl peptide (see below) was added, after which aspiration and analysis continued. For statistical analyses fluorescent data recorded during the time interval 30-60 seconds after initiation of measurement were used. […] Experiments were performed 3 times. Representative flow cytometry results are depicted in Fig 1. […] We then assessed whether these antagonists could compete with KP10 for its receptor. […] For this purpose 25 μl quantities of the antagonists were added to 200 μl of Fluo-3 AM labelled cells (10^6 cells/ml) and incubated for 15 min. […] Peptides p354 and p356 were tested three times with both human and canine KP10; while peptides p234 and p271 were tested three times with human KP10 and once with canine KP10. […] A multivariate general linear model was set up to analyze differences in calcium response between the different concentrations, with Dunnett's test as a post hoc procedure for the antagonists and Bonferroni's test for the agonists.

The target in test [2] is T1, human GPR54. Briefly: Flow cytometric calcium flux assay, KP10-induced response after 15 min pre-incubation with antagonist. The test is classed as cell-based. More on the design: host or cells: rat hematopoietic CHEM1 cells expressing endogenous Galpha15. The following applies: 10^-5 M; 10^-8 M KP10; P<0.001; ascribed to intrinsic response, not antagonism. As for the experimental part: In vitro analyses of the effects of kisspeptin and kisspeptin antagonists, were performed using HT[…] cells (rat hematopoietic CHEM1 cells expressing endogenous Gα15 and, stably expressing the human GPR54 receptor (Millipore BV, the Netherlands), CHEM1-GPR54. Cells were counted and suspended in HBSS+++ at a concentration of 5*10^6 cells/ml. To load the cells with the fluorescent dye ester they were incubated in HBSS+++ adjusted to a concentration of 2 μM Fluo-3 AM (Molecular Probes, Life Technologies, the Netherlands) for 1h at 37°C under agitation in the dark. After incubation, the cells were washed by adding HBSS+++ to a volume of 10 ml followed by centrifugation (5 min, 150 x g) to remove excess of Fluo-3AM. […] Thereafter the tube was removed briefly and 25 μl peptide (see below) was added, after which aspiration and analysis continued. For statistical analyses fluorescent data recorded during the time interval 30-60 seconds after initiation of measurement were used. […] We then assessed whether these antagonists could compete with KP10 for its receptor. […] For this purpose 25 μl quantities of the antagonists were added to 200 μl of Fluo-3 AM labelled cells (10^6 cells/ml) and incubated for 15 min. […] Peptides p354 and p356 were tested three times with both human and canine KP10; while peptides p234 and p271 were tested three times with human KP10 and once with canine KP10. To analyze the effects of different concentrations of the KP antagonists on the calcium response due to KP10 addition, the differences in fluorescence before and after KP10 were calculated (the calcium response). The calcium response ratios were calculated as the calcium response of the CHEM1-GPR54 cells pre-incubated with different concentrations of KP antagonist and the control (the calcium response of the cells without KP antagonist). These calcium response ratios were log transformed and used for further analysis by univariate analysis of variance, with the Dunnett's test as post hoc test. The calcium response ratios were set as dependent variables and the different concentrations of the antagonists and the two types of KP10 were used as fixed factors. The residuals were normally distributed.
A general note: In flow cytometry, cells or beads pass a laser one at a time.

For the next test, the system named is plasma LH concentration. Briefly: Plasma LH in anestrous Beagle bitches during antagonist infusion and after cKP10 bolus. It is filed as in vivo, dog. The following applies: n = 6. From the text: Thirteen adult anestrous Beagle bitches were used for this study. Six dogs with a median age of 89 months (range 43–122 months) were used as control group, receiving cKP10 without an antagonist. Eight dogs with a median age of 52 months (range 31–116 months) were used for the antagonist experiments. One dog was first used in the control group and 12 months later for the antagonist experiments. Of the eight dogs used for the antagonist experiments, four received p271, p354, and p356. In two of the eight dogs both p354 and p356 were tested, while in the remaining two dogs only p271 was tested, in order to test every antagonist in 6 dogs. The time between testing of different kisspeptin antagonists was at least 5 days (range 5–15 days) to ensure that there were no peptide residues. Kisspeptin antagonist p234 per se was not tested in vivo because p271 is in fact p234 with a penetratin tag to enhance passage across the blood-brain barrier, as has been described for use with peripheral administration.
Kisspeptin antagonists (50 μg/kg/h) were administered continuously for three hours via a catheter in the cephalic vein. Two hours after the start of the infusion, a single bolus of cKP10 (0.5 μg/kg) was administered intravenously. Blood samples were collected from the jugular vein by venipuncture at -40 min and 0 min before the antagonist infusion, and then every 30 min for two hours. After the administration of cKP10, blood samples were collected at 10, 20, 40, and 60 min (i.e., 130, 140, 160, and 180 min after the start of the antagonist infusion).
As a control, KP stimulation tests (without the administration of a kisspeptin antagonist) were performed in six dogs. Blood samples were collected from the jugular vein by venipuncture at -40 min and 0 min before, and then at 10, 20, 40, and 60 min after administration of cKP10 (0.5 μg/kg). Plasma LH concentrations were measured in all blood samples.
Plasma LH concentrations were measured with a heterologous radioimmunoassay validated for the dog, as described previously. The intra- and interassay CVs for values above 0.5 μg/l were 2.3 and 10.5%, respectively, and the limit of quantitation was 0.3 μg/l.
In both groups of dogs (experimental and control), the basal plasma LH concentration was calculated for each dog as the mean of the values at –40 and 0 min before cKP10 or antagonist administration. All LH values that exceeded the mean of all basal samples plus 3 SD were attributed to pulsatile secretion and were treated as outliers and excluded from statistical analysis. Log transformation of plasma LH concentrations was used because data were not normally distributed. A linear mixed model was used to analyze differences in plasma LH concentrations before and after KP10, with or without a kisspeptin antagonist (group effects: p271, p354, p356, and controls), with Bonferroni correction. P<0.05 was considered significant.

Setting [3] is: antagonist 50 μg/kg/h iv, cKP10 0.5 μg/kg iv.

Consider one substance from article PMC5484485, “In vitro and in vivo effects of kisspeptin antagonists p234, p271, p354, and p356 on GPR54 activation” (PLoS ONE, 2017).

Square brackets hold non-standard residues; d marks the D form. Ends that are not written are not given here.

T1 sequence (Q969F8 whole entry): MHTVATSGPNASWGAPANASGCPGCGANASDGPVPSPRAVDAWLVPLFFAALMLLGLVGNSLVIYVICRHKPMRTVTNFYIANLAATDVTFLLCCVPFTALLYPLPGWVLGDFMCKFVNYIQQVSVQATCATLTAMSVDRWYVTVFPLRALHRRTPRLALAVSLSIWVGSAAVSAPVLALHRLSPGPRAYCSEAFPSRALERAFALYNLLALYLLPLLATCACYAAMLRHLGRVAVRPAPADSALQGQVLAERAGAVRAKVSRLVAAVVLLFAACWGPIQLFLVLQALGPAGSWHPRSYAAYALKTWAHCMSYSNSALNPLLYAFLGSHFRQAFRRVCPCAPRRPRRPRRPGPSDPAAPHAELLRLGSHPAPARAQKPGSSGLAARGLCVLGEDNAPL

Turning to [dA]YNWNGFG[dW]KF-NH2 [p356], the “binding and inhibition of kisspeptin action on inositol generation, potency range” value in the test with kisspeptin receptor is “nanomolar range”. On human GPR54 [1] (10^-5 M, P = 0.001), the “intrinsic calcium response at highest concentration” value is listed as “clear calcium response”. In addition, the “pharmacological character on CHEM1-GPR54 cells” value at human GPR54 [1] (authors' conclusion) is recorded as “partial agonist”. On human GPR54 [2], the “calcium response ratio versus control at highest concentration” value is recorded as “smaller than the negative control”. Further, in the test on plasma LH concentration (30 min of antagonist infusion 50 μg/kg/h iv), the “Median (and range) plasma LH, t = 30” value is listed as 4.1 (2.4–12.8) μg/L. The “Median (and range) plasma LH, t = 60” value with plasma LH concentration (60 min of antagonist infusion 50 μg/kg/h iv) is given as 3.9 (2.2–7.7) μg/L. Further, the “Median (and range) plasma LH, t = 90” value with plasma LH concentration (90 min of antagonist infusion 50 μg/kg/h iv) is recorded as 4.5 (2.8–6.7) μg/L. In the test on plasma LH concentration (120 min of antagonist infusion 50 μg/kg/h iv, before cKP10), the “Median (and range) plasma LH, t = 120” value is listed as 4.9 (2.1–10.4) μg/L. Moreover, in the test on plasma LH concentration (setting [3]), the “median maximum increment in plasma LH concentration after cKP10 during antagonist administration” value is 8.1 µg/L and the “range of maximum increment in plasma LH concentration after cKP10 during antagonist administration” value was 6.3 to 18.3 µg/L. The “Median (and range) plasma LH, t = 130 / t = 10*” value in the test with plasma LH concentration (antagonist infusion 50 μg/kg/h iv, 10 min after cKP10 0.5 μg/kg iv) is 12.8 (9.1–23.1) μg/L. The “Median (and range) plasma LH, t = 140 / t = 20*” value in the test on plasma LH concentration (antagonist infusion 50 μg/kg/h iv, 20 min after cKP10 0.5 μg/kg iv) is reported as 8.7 (7.1–13.4) μg/L. For the same substance, the “Median (and range) plasma LH, t = 180 / t = 60*” value in the test with plasma LH concentration (antagonist infusion 50 μg/kg/h iv, 60 min after cKP10 0.5 μg/kg iv) is 4.7 (3.6–12.8) μg/L. Besides, in the test on plasma LH concentration (before antagonist infusion (mean of -40 and 0 min per dog)), the “Median (and range) plasma LH, Basal” value was 4.3 (2.8–6.0) μg/L. Besides, the “effect on basal plasma LH concentration” value with plasma LH concentration (continuous iv 50 μg/kg/h, anestrous bitches) is listed as “did not cause significant alterations”.
